Experiments:
[1] = test system: Candida albicans ATCC 10231; assay: antifungal activity in vitro, serial dilution in RPMI 1640; assay type: cell-based
In short: (§1)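 Optical density at 531 nm served as the growth read-out. Values were plotted against compound concentration after serial dilution of each compound in RPMI 1640 medium buffered to pH 7.0, as in the M27-A2 yeast standard.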

[2] = test system: Candida glabrata DSM 11226; assay: as above; assay type: cell-based
In short: as §1

Candida krusei DSM 6128 = assay: as above; assay type: cell-based
In short: as §1

[3] = test system: Candida lusitaniae DSM 70102; assay: as above; assay type: cell-based
In short: as §1

[4] = test system: Candida tropicalis KKP 334; assay: as above; assay type: cell-based
In short: as §1

[5] = test system: Saccharomyces cerevisiae ATCC 9763; assay: as above; assay type: cell-based; conditions: RPMI 1640, pH 7.0
In short: as §1

Human erythrocytes = assay: hemotoxicity determination (hemolytic activity); assay type: cell-based
In short: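 Human erythrocytes (2×10^7/ml in saline) were incubated with serially diluted compound for 30 min at 37 °C and then centrifuged. Released haemoglobin was read at A540 against a 0.1% Triton X-100 full-lysis control. EH50 is the interpolated concentration giving 50% of the control A540.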

[6] = test system: Aspergillus niger LOCK E201; assay: antifungal activity in vitro, broader spectrum; assay type: cell-based
In short: (§2)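 Compound is serially diluted in pH 7.0 buffered RPMI 1640 medium under the M27-A2 standard. Cell suspension turbidity is then measured at 531 nm. Results come from relating A531 to compound concentration.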

Candida albicans SC 5314 = assay: antifungal activity in vitro, broader spectrum; assay type: cell-based
In short: as §2

Candida arborea KKP 319 = assay: antifungal activity in vitro, broader spectrum; assay type: cell-based
In short: as §2

[7] = test system: Candida dubliniensis CBS 7987; assay: antifungal activity in vitro, broader spectrum; assay type: cell-based
In short: as §2

[8] = test system: Candida lipolytica KKP 322; assay: antifungal activity in vitro, broader spectrum; assay type: cell-based
In short: as §2

[9] = test system: Candida parapsilosis DSM 5784; assay: antifungal activity in vitro, broader spectrum; assay type: cell-based
In short: as §2

[10] = test system: Candida pseudotropicalis KKP 324; assay: antifungal activity in vitro, broader spectrum; assay type: cell-based
In short: as §2

[11] = test system: Candida quilliermondii DSM 11947; assay: antifungal activity in vitro, broader spectrum; assay type: cell-based
In short: as §2

[12] = test system: Candida stellatoidea CBS 1905; assay: antifungal activity in vitro, broader spectrum; assay type: cell-based
In short: as §2

[13] = test system: Trichoderma viride LOCK E159; assay: antifungal activity in vitro, broader spectrum; assay type: cell-based
In short: as §2

[14] = test system: Candida albicans clinical strain B3; assay: antifungal activity against MDR fungal strains and parents; assay type: cell-based; conditions: C. albicans B3, fluconazole sensitive, parent strain for B4
In short: as §1

[15] = test system: Candida albicans clinical strain B4 (CaMdr1p); assay: as above; assay type: cell-based; conditions: C. albicans B4 (CaMdr1p), fluconazole-resistant
In short: as §1

[16] = test system: Candida albicans clinical strain F2; assay: as above; assay type: cell-based; conditions: C. albicans F2, fluconazole sensitive, parent strain for F5
In short: as §1

[17] = test system: Candida albicans clinical strain F5 (CaMdr1p); assay: as above; assay type: cell-based; conditions: C. albicans F5 (CaMdr1p), fluconazole-resistant
In short: as §1

[18] = test system: Candida albicans clinical strain Gu4; assay: as above; assay type: cell-based; conditions: C. albicans Gu4, fluconazole sensitive, parent strain for Gu5
In short: as §1

[19] = test system: Candida albicans clinical strain Gu5 (CaCdr1p, CaCdr2p); assay: as above; assay type: cell-based; conditions: C. albicans Gu5 (CaCdr1p, CaCdr2p), fluconazole-resistant
In short: as §1

[20] = test system: Candida albicans strain 5674 (CaCdr1p, CaCdr2p); assay: as above; assay type: cell-based; conditions: C. albicans 5674 (CaCdr1p, CaCdr2p)
In short: as §1

[21] = test system: Candida albicans strain STY31; assay: as above; assay type: cell-based; conditions: C. albicans STY31, 5674 derivative, deletion of CDR1 and CDR2
In short: as §1

[22] = test system: Candida albicans strain STY7 (CaCdr1p); assay: as above; assay type: cell-based; conditions: C. albicans STY7 (CaCdr1p), 5674 derivative, deletion of CDR2
In short: as §1

CCRF-CEM cells = assay: cytotoxic activity against mammalian cells in tissue culture (MTT); assay type: cell-based, human
HepG2 cells = assay: as above; assay type: cell-based, human
LLC-PK1 cells = assay: as above; assay type: cell-based, pig

Substance: N-methyl-L-(O^γ-tert-butyl)glutamylamphotericin B [Compound A34]
- Antifungal activity MIC [1]: 4 µg/mL
- Antifungal activity MIC [2]: 4 µg/mL
- Antifungal activity MIC (Candida krusei DSM 6128): 4 µg/mL
- Antifungal activity MIC [3]: 2 µg/mL
- Antifungal activity MIC [4]: 4 µg/mL
- Antifungal activity IC50 ([5]; Saccharomyces cerevisiae ATCC 9763 (first head over MIC and IC50)): 1.22 µg/mL
- Antifungal activity MIC ([5]; Saccharomyces cerevisiae ATCC 9763): 2 µg/mL
- Hemotoxi EH50 (Human erythrocytes): >100 µg/mL
- Antifungal activity MIC [6]: 2 µg/mL
- Antifungal activity MIC (Candida albicans SC 5314): 1 µg/mL
- Antifungal activity MIC (Candida arborea KKP 319): 4 µg/mL
- Antifungal activity MIC [7]: 1 µg/mL
- Antifungal activity MIC [8]: 1 µg/mL
- Antifungal activity MIC [9]: 1 µg/mL
- Antifungal activity MIC [10]: 1 µg/mL
- Antifungal activity MIC [11]: 2 µg/mL
- Antifungal activity MIC [12]: 1 µg/mL
- Antifungal activity MIC [13]: 4 µg/mL
- Antifungal activity MIC [14]: 1 µg/mL
- Antifungal activity MIC [15]: 2 µg/mL
- Antifungal activity MIC [16]: 4 µg/mL
- Antifungal activity MIC [17]: 8 µg/mL
- Antifungal activity MIC [18]: 1 µg/mL
- Antifungal activity MIC [19]: 2 µg/mL
- Antifungal activity MIC [20]: 4 µg/mL
- Antifungal activity MIC [21]: 2 µg/mL
- Antifungal activity MIC [22]: 2 µg/mL
- IC50 (cytotoxic activity) (CCRF-CEM cells): >100 µg/mL
- IC50 (cytotoxic activity) (HepG2 cells): >100 µg/mL
- IC50 (cytotoxic activity) (LLC-PK1 cells): >100 µg/mL
